According to patent publication US20040018527A1, “Differential patterns of gene expression that predict for docetaxel chemosensitivity and chemo resistance” (priority 2002, published 2004):

Legend:
[1] = test system: MDA-MB-23 1 breast cancer cell line; details: MDA-MB-23 1 cells overexpressing heat shock protein 27; cited from earlier work
[2] = test system: HSP27-overexpressing cell lines; details: cited from earlier work
[3] = test system: locally advanced breast cancer; experiment: phase II study with neoadjuvant docetaxel, clinical response (residual disease) after 4 cycles; format: in vivo, human
Excerpt: From September 1999 to June 2001, patients with locally advanced breast cancer (primary cancers greater than 4 cm, or with clinically evident axillary metastases) were considered for a phase II study with neoadjuvant docetaxel. The inclusion criteria were 1) age greater than 18 years and a diagnosis of breast cancer confirmed by core needle biopsy, 2) premenopausal status accompanied by appropriate contraception, 3) adequate performance status, and 4) adequate liver and kidney function tests (all within 1.5 times the upper limit of normal). Exclusion criteria included 1) severe underlying chronic illness or disease, and 2) treatment with other chemotherapeutic drugs while on study.
Clinical staging and size of primary tumor was recorded at the start of treatment, at each cycle, and after completion of 4 cycles of chemotherapy. Tumor size (product of the two largest perpendicular diameters) measured before and after 4 cycles of neoadjuvant chemotherapy was used to compute the percentage of residual disease. The median residual disease was then calculated, and this degree of response was then used to divide the cancers into 2 groups of sensitive and resistant categories of approximately equal numbers before gene expression analysis.
Core biopsies of the primary cancers were undertaken before administration of single agent docetaxel as neoadjuvant treatment. Docetaxel at 100 mg/m2 was given every three weeks for a total of 4 cycles, and clinical response assessed after the fourth cycle, at 12 weeks. As the standard of care, patients were continued on neoadjuvant chemotherapy through the full 4 cycles unless there was clear documentation of progressive disease, defined as increase in tumor size of more than 25%. Primary surgery and standard adjuvant therapy was then administered following completion of neoadjuvant docetaxel. In order to maximize the likelihood of obtaining sufficient tissue, approximately six core biopsies using a Bard MaxCore Biopsy Instrument (#MC1410) were taken. Biopsies were performed under local anesthesia, using the same entry point, but reorienting the needle. Two to three core biopsy specimens were immediately transferred for snap freezing at −80° C. for cDNA array analysis. The remaining specimens were fixed in formalin for diagnostic and possible immunohistochemical analysis.
The clinical characteristics of the 24 patients enrolled in this phase II neoadjuvant study are included in Table 1. Before treatment, the median tumor size was 8 cm (range 4 to 30 cm). Prior to gene expression analysis, the sensitivity and resistance was defined based on the percentage of residual disease after treatment. It was determined that the median residual disease after chemotherapy was 30%. Then, it was arbitrarily defined that sensitive tumors were those with 25% residual disease or less and resistant tumors were those with greater than 25% residual disease, as this cut-off divides the numbers of patients almost equally into two groups for statistical comparison. In addition, the presenting tumors were large in this study of locally advanced breast cancer, and tumor regressions of at least 75% following chemotherapy would almost certainly represent clinically responsive disease.

Structure (SMILES) | association of HSP27 overexpression with drug resistance [1] | sensitivity to docetaxel [2] | resistant tumors with residual tumors 100% or greater of baseline ([3]; 3/13 resistant tumors) | sensitive tumors with minimal residual disease (<10% residual tumor) ([3]; 5/11 sensitive tumors) | residual disease, independent cohort ([3]; 6 additional patients of the same clinical study, all 6 sensitive tumors) | resistant tumors with residual tumors ≧60% ([3]; 7/13 resistant tumors) | patients sensitive to docetaxel (25% residual disease or less) ([3]; 11 of 24 patients) | patients resistant to docetaxel (greater than 25% residual disease) ([3]; 13 of 24 patients) | median residual disease after chemotherapy ([3]; 24 patients, docetaxel 100 mg/m2 every three weeks, 4 cycles, tumor size after vs before, at 12 weeks)
COc1cccc2c1C(=O)c1c(O)c3c(c(O)c1C2=O)C[C@@](O)(C(=O)CO)C[C@@H]3O[C@H]1C[C@H](N)[C@H](O)[C@H](C)O1 [Adriamycin] | resistance | – | – | – | – | – | – | – | –
CC(=O)O[C@@]12CO[C@@H]1C[C@H](O)[C@@]1(C)C(=O)[C@H](O)C3=C(C)[C@@H](OC(=O)[C@H](O)[C@@H](NC(=O)OC(C)(C)C)c4ccccc4)C[C@@](O)([C@@H](OC(=O)c4ccccc4)[C@H]21)C3(C)C [docetaxel] | – | remain sensitive | 23% | 45% | less than 25% | 58% | 46% | 54% | 30%
